Tested on: acetylated tubulin (Lys40) in HeLa cells
Test: Acetylated α-tubulin measurement in vitro (immunocytochemistry)
Assay type: cell-based
Settings: Homo sapiens, 6 hours incubation, acetylated tubulin (Lys40) by immunocytochemistry, read-out: IC50 (Tubulin deacetylation)
In short: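 HeLa cells in serum-free medium treated 6 h at 37 °C (final DMSO 0.1–0.4%), then PFA-fixed and immunostained for acetyl-Lys40 and total α-tubulin; high-content imaging.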

Row | Structure (SMILES) | IC50
1 | O=C(CSc1nc(C(F)(F)F)nc2ncccc12)c1ccc(CNS(=O)(=O)C2CC2)s1 [Example 122, N-((5-(2-((2-(trifluoromethyl)pyrido[2,3-d]pyrimidin-4-yl)thio)acetyl)thiophen-2-yl)methyl)cyclopropanesulfonamide] | 0.1 to 0.5 µM
2 | O=C(CSc1nc(C(F)(F)F)nc2ncccc12)c1ccc(CNS(=O)(=O)CC(F)(F)F)s1 [Example 123, 2,2,2-trifluoro-N-((5-(2-((2-(trifluoromethyl)pyrido[2,3-d]pyrimidin-4-yl)thio)acetyl)thiophen-2-yl)methyl)ethane-1-sulfonamide] | 0.1 to 0.5 µM
3 | Cc1nc(SCC(=O)c2ccc(CNC(=O)CO)s2)c2cc(F)cnc2n1 [Example 124, N-((5-(2-((6-fluoro-2-methylpyrido[2,3-d]pyrimidin-4-yl)thio)acetyl)thiophen-2-yl)methyl)-2-hydroxyacetamide] | ≤ 0.1 µM
4 | COCCn1ncc2c(SCC(=O)c3ccc(CNC(=O)CO)s3)nc(C(F)(F)F)nc21 [Example 125, 2-hydroxy-N-((5-(2-((1-(2-methoxyethyl)-6-(trifluoromethyl)-1H-pyrazolo[3,4-d]pyrimidin-4-yl)thio)acetyl)thiophen-2-yl)methyl)acetamide] | ≤ 0.1 µM
5 | Cc1nc(SCC(=O)c2ccc(CNC(=O)CO)s2)c2cc(OC(F)(F)F)ccc2n1 [Example 126, 2-hydroxy-N-((5-(2-((2-methyl-6-(trifluoromethoxy)quinazolin-4-yl)thio)acetyl)thiophen-2-yl)methyl)acetamide] | ≤ 0.1 µM
6 | CCS(=O)(=O)NCc1ccc(C(=O)CSc2nc(C(F)(F)F)nc3ncccc23)s1 [Example 127, N-((5-(2-((2-(trifluoromethyl)pyrido[2,3-d]pyrimidin-4-yl)thio)acetyl)thiophen-2-yl)methyl)ethanesulfonamide] | 0.1 to 0.5 µM
7 | COc1ccc2nc(C)nc(SCC(=O)c3ccc([C@H](C)NC(=O)CO)s3)c2c1 [Example 128, (S)-2-hydroxy-N-(1-(5-(2-((6-methoxy-2-methylquinazolin-4-yl)thio)acetyl)thiophen-2-yl)ethyl)acetamide] | 0.1 to 0.5 µM
8 | C[C@H](NC(=O)CO)c1ccc(C(=O)CSc2nc(C(F)(F)F)nc3c2cnn3C)s1 [Example 130, (S)-2-hydroxy-N-(1-(5-(2-((1-methyl-6-(trifluoromethyl)-1H-pyrazolo[3,4-d]pyrimidin-4-yl)thio)acetyl)thiophen-2-yl)ethyl)acetamide] | 0.1 to 0.5 µM
9 | CN(Cc1ccc(C(=O)CSc2nc(C(F)(F)F)nc3ncccc23)s1)C(=O)CO [Example 131, 2-hydroxy-N-methyl-N-((5-(2-((2-(trifluoromethyl)pyrido[2,3-d]pyrimidin-4-yl)thio)acetyl)thiophen-2-yl)methyl)acetamide] | 0.1 to 0.5 µM
10 | COCCn1cc2c(SCC(=O)c3ccc(CNC(=O)CO)s3)nc(C(F)(F)F)nc2n1 [Example 132, 2-hydroxy-N-((5-(2-((2-(2-methoxyethyl)-6-(trifluoromethyl)-2H-pyrazolo[3,4-d]pyrimidin-4-yl)thio)acetyl)thiophen-2-yl)methyl)acetamide] | ≤ 0.1 µM
11 | O=C(CO)NCc1ccc(C(=O)CSc2nc(C(F)(F)F)nc3c2cnn3C2CC2)s1 [Example 133, N-((5-(2-((1-cyclopropyl-6-(trifluoromethyl)-1H-pyrazolo[3,4-d]pyrimidin-4-yl)thio)acetyl)thiophen-2-yl)methyl)-2-hydroxyacetamide] | 0.1 to 0.5 µM
12 | COc1ccc2nc(C(F)(F)F)nc(SCC(=O)c3ccc(CNC(=O)C(C)(C)O)s3)c2c1 [Example 134, 2-hydroxy-N-((5-(2-((6-methoxy-2-(trifluoromethyl)quinazolin-4-yl)thio)acetyl)thiophen-2-yl)methyl)-2-methylpropanamide] | 0.1 to 0.5 µM
13 | CCn1cc2c(SCC(=O)c3ccc(CNC(=O)CO)s3)nc(C(F)(F)F)nc2n1 [Example 135, N-((5-(2-((2-ethyl-6-(trifluoromethyl)-2H-pyrazolo[3,4-d]pyrimidin-4-yl)thio)acetyl)thiophen-2-yl)methyl)-2-hydroxyacetamide] | ≤ 0.1 µM
14 | CCn1ncc2c(SCC(=O)c3ccc(CNC(=O)CO)s3)nc(C(F)(F)F)nc21 [Example 136, N-((5-(2-((1-ethyl-6-(trifluoromethyl)-1H-pyrazolo[3,4-d]pyrimidin-4-yl)thio)acetyl)thiophen-2-yl)methyl)-2-hydroxyacetamide] | 0.1 to 0.5 µM
15 | COc1ccc2nc(C)nc(SCC(=O)c3ccc(CN4CCOCC4=O)s3)c2c1 [Example 137, 4-((5-(2-((6-methoxy-2-methylquinazolin-4-yl)thio)acetyl)thiophen-2-yl)methyl)morpholin-3-one] | 0.1 to 0.5 µM
16 | O=C(CSc1nc(C(F)(F)F)nc2ncccc12)c1ccc(CN2CCOCC2=O)s1 [Example 138, 4-((5-(2-((2-(trifluoromethyl)pyrido[2,3-d]pyrimidin-4-yl)thio)acetyl)thiophen-2-yl)methyl)morpholin-3-one] | 0.1 to 0.5 µM
17 | COc1ccc2nc(C(F)F)nc(SCC(=O)c3ccc(CNC(=O)CO)s3)c2c1 [Example 139, N-((5-(2-((2-(difluoromethyl)-6-methoxyquinazolin-4-yl)thio)acetyl)thiophen-2-yl)methyl)-2-hydroxyacetamide] | 0.1 to 0.5 µM

Row | Structure (SMILES) | IC50
18 | COc1cnc2nc(C)nc(SCC(=O)c3ccc(CNC(=O)CO)s3)c2c1 [Example 140, 2-hydroxy-N-((5-(2-((6-methoxy-2-methylpyrido[2,3-d]pyrimidin-4-yl)thio)acetyl)thiophen-2-yl)methyl)acetamide] | 0.1 to 0.5 µM
19 | COc1ccc2nc(C)nc(SCC(=O)c3ccc(CN4CCC(O)C4=O)s3)c2c1 (stereo not shown) [Example 141, 3-hydroxy-1-((5-(2-((6-methoxy-2-methylquinazolin-4-yl)thio)acetyl)thiophen-2-yl)methyl)pyrrolidin-2-one] | 0.1 to 0.5 µM
20 | Cc1nc(SCC(=O)c2ccc(CNC(=O)CO)s2)c2cc(Cl)cc(F)c2n1 [Example 142, N-((5-(2-((6-chloro-8-fluoro-2-methylquinazolin-4-yl)thio)acetyl)thiophen-2-yl)methyl)-2-hydroxyacetamide] | ≤ 0.1 µM
21 | COc1cccc2nc(C)nc(SCC(=O)c3ccc(CNC(=O)CO)s3)c12 [Example 143, 2-hydroxy-N-((5-(2-((5-methoxy-2-methylquinazolin-4-yl)thio)acetyl)thiophen-2-yl)methyl)acetamide] | 0.1 to 0.5 µM
22 | CCOc1ccc2nc(C)nc(SCC(=O)c3ccc(CNC(=O)CO)s3)c2c1 [Example 144, N-((5-(2-((6-ethoxy-2-methylquinazolin-4-yl)thio)acetyl)thiophen-2-yl)methyl)-2-hydroxyacetamide] | ≤ 0.1 µM
23 | CCOc1cc2c(SCC(=O)c3ccc(CNC(=O)CO)s3)nc(C)nc2cn1 [Example 145, N-((5-(2-((6-ethoxy-2-methylpyrido[3,4-d]pyrimidin-4-yl)thio)acetyl)thiophen-2-yl)methyl)-2-hydroxyacetamide] | ≤ 0.1 µM
24 | Cc1nc(SCC(=O)c2ccc(CNC(=O)CO)s2)c2c(F)c(Cl)ccc2n1 [Example 146, N-((5-(2-((6-chloro-5-fluoro-2-methylquinazolin-4-yl)thio)acetyl)thiophen-2-yl)methyl)-2-hydroxyacetamide] | 0.1 to 0.5 µM
25 | COc1cc(C(F)(F)F)cc2c(SCC(=O)c3ccc(CNC(=O)CO)s3)nc(C)nc12 [Example 148, 2-hydroxy-N-((5-(2-((8-methoxy-2-methyl-6-(trifluoromethyl)quinazolin-4-yl)thio)acetyl)thiophen-2-yl)methyl)acetamide] | ≤ 0.1 µM
26 | Cc1nc(SCC(=O)c2ccc(CNC(=O)CO)s2)c2cc(N(C)C)ncc2n1 [Example 149, N-((5-(2-((6-(dimethylamino)-2-methylpyrido[3,4-d]pyrimidin-4-yl)thio)acetyl)thiophen-2-yl)methyl)-2-hydroxyacetamide] | ≤ 0.1 µM
27 | Cc1nc(SCC(=O)c2ccc(CNC(=O)CO)s2)c2cc(C(F)(F)F)cc(N(C)C)c2n1 [Example 150, N-((5-(2-((8-(dimethylamino)-2-methyl-6-(trifluoromethyl)quinazolin-4-yl)thio)acetyl)thiophen-2-yl)methyl)-2-hydroxyacetamide] | 0.1 to 0.5 µM
28 | CNc1cc(C(F)(F)F)cc2c(SCC(=O)c3ccc(CNC(=O)CO)s3)nc(C)nc12 [Example 151, 2-hydroxy-N-((5-(2-((2-methyl-8-(methylamino)-6-(trifluoromethyl)quinazolin-4-yl)thio)acetyl)thiophen-2-yl)methyl)acetamide] | 1 to 3.33 µM
29 | O=C(CO)NCc1ccc(C(=O)CSc2nc(C(F)(F)F)nc3cccnc23)s1 [Example 152, 2-hydroxy-N-((5-(2-((2-(trifluoromethyl)pyrido[3,2-d]pyrimidin-4-yl)thio)acetyl)thiophen-2-yl)methyl)acetamide] | ≤ 0.1 µM
30 | Cc1nc(SCC(=O)c2ccc(CNC(=O)CO)s2)c2ncccc2n1 [Example 153, 2-hydroxy-N-((5-(2-((2-methylpyrido[3,2-d]pyrimidin-4-yl)thio)acetyl)thiophen-2-yl)methyl)acetamide] | ≤ 0.1 µM
31 | COc1cc2c(SCC(=O)c3ccc(CNC(=O)CO)s3)nc(C(F)(F)F)nc2cn1 [Example 154, 2-hydroxy-N-((5-(2-((6-methoxy-2-(trifluoromethyl)pyrido[3,4-d]pyrimidin-4-yl)thio)acetyl)thiophen-2-yl)methyl)acetamide] | ≤ 0.1 µM
32 | O=C(CSc1nc(C(F)(F)F)nc2ncccc12)c1ccc(CN2CCCC2=O)s1 [Example 157, 1-((5-(2-((2-(trifluoromethyl)pyrido[2,3-d]pyrimidin-4-yl)thio)acetyl)thiophen-2-yl)methyl)pyrrolidin-2-one] | ≤ 0.1 µM
33 | COc1ccc2nc(C)nc(SCC(=O)c3ccc(CNC(=O)CO)s3)c2c1F [Example 158, N-((5-(2-((5-fluoro-6-methoxy-2-methylquinazolin-4-yl)thio)acetyl)thiophen-2-yl)methyl)-2-hydroxyacetamide] | 0.1 to 0.5 µM
34 | COc1cc2c(SCC(=O)c3ccc(CN(C)C(=O)CO)s3)nc(C(F)(F)F)nc2cn1 [Example 159, 2-hydroxy-N-((5-(2-((6-methoxy-2-(trifluoromethyl)pyrido[3,4-d]pyrimidin-4-yl)thio)acetyl)thiophen-2-yl)methyl)-N-methylacetamide] | ≤ 0.1 µM
